Patent US5614213A, “Use of estriol for treatment of climacteric osteoporosis” (priority 1992, dated 1997)
Entries after “also recorded” stand apart in the source; their conditions may differ.

Experiments:
[1] = tested on: arteriosclerotic vascular changes; conditions: hormone replacement; cited from earlier work
[2] = tested on: ovulation in women; conditions: lower dosages than 5 mg/day; cited from earlier work
[3] = tested on: osteoporosis; conditions: cited from earlier work; for prevention of osteoporosis in the climacteric: hormone replacement
[4] = tested on: receptor; conditions: in combination with "strong" estrogens; cited from earlier work
[5] = tested on: femur bones; test: Trabecular proportion of the bone volume (femur histology) after ovariectomy; type: in vivo, Wistar rats
Source text: (§1) Investigation of the osteoporotic action of estriol on ovariectomized rats
(§2) 11 week-old female Wistar rats lose a considerable proportion of their bone substance in two weeks after ovariectomy. It was to be investigated whether this effect is preventable through estriol. For this, this hormone was to be applied such that constant hormone levels are established over the whole test period. […] The assumption that estriol has insufficient activity as a partial estrogen antagonist at the bone was also to be examined as another possibility.
(§3) Female Wistar rats from the experimental animal breeders "Biomodelle GmbH", O-1291 Schonwalde (breed: Wistar) were supplied at ages from nine to ten weeks and kept under conventional conditions at a room temperature of 22° C.[…] and under a light regime (14 h light and 10 h dark) in PVC shells with fitted wire covers.
(§4) The animals received standard formulation R 13 feed and drinking water ad libitum.
(§5) At the age of 11 weeks (body weight approximately 220 g) the animals were used in the experiment.
(§6) Subcutaneous application osmotic pumps. Model: Alzet 2002, capacity of the reservoir 200 μl. Throughflow 0.5 μl/hour. Solution of the test substance in propylene glycol.
(§7) The duration of the whole experiment was 3 weeks, 1 week before castration and two weeks (15 days) after castration.
At the end of the experiment the animals were killed and the femur bones fixed for histological investigations according to standard methods, cut with a hard cut microtome and investigated qualitatively and quantitatively as regards morphological features.
The effect on the proportion of trabecular structures in the surface of bone sections was determined as a parameter of the osteoprotective effect of estriol.

[6] = tested on: uterus; conditions: administered once to ovariectomized rats; cited from earlier work
[7] = tested on: castrated (OVX) Wistar rats; test: Hydroxyproline excretion in 24-h urine of ovariectomized rats after estriol application; type: in vivo; conditions: for Hydroxyproline content in the urine: mean, n = 8
Source text: as §1, §2, §3, §4, §5, §6, §7
In the week prior to castration, characteristic parameters. were determined "as starting values" prior to the estrogen-specific bone degradation through ovariectomy (hydroxyproline content in the 24-h-urine, hydroxyproline content and estriol concentration in the serum).
For the determination of the hydroxyproline content in the urine, the collective urine was obtained over 24 hours. For this, the animals were individually placed once a week in diuresis cages which permitted a sufficiently clean collection of urine, separate from faeces. The hydroxyproline content was then determined in the collective urine of each individual animal.
(§8) Hydroxyproline is released during the decomposition of collagen which also accounts for a considerable proportion of the bone substance.

[8] = tested on: castrated (OVX) Wistar rats; test: Hydroxyproline level in serum of ovariectomized rats after estriol application; type: in vivo; conditions: for Hydroxyproline content in the serum: mean
Source text: as §1, §2, §3, §4, §5, §6, §7
In the week prior to castration, characteristic parameters. were determined "as starting values" prior to the estrogen-specific bone degradation through ovariectomy (hydroxyproline content in the 24-h-urine, hydroxyproline content and estriol concentration in the serum). […]
as §8

[9] = tested on: bones; conditions: dosage quantities of 12 mg/day oral; cited from earlier work
[10] = tested on: mastocarcinomas; conditions: mastocarcinoma; induction and promotion phases; cited from earlier work
[11] = conjugation with glucuronic acid or sulphate in the liver; cited from earlier work
[12] = OVX + D1, estriol 0.1 μg/24 hrs, day 7 after castration
[13] = OVX + D1, estriol 0.1 μg/24 hrs, day 12 after castration
[14] = OVX + D1, estriol 0.1 μg/24 hrs, day 13 after castration
[15] = OVX + D1, estriol 0.1 μg/24 hrs, day 14 after castration
[16] = OVX + D1, estriol 0.1 μg/24 hrs, day 15 after castration
[17] = OVX + D2, estriol 1.0 μg/24 hrs, day 7 after castration
[18] = OVX + D2, estriol 1.0 μg/24 hrs, day 12 after castration
[19] = OVX + D2, estriol 1.0 μg/24 hrs, day 13 after castration
[20] = OVX + D2, estriol 1.0 μg/24 hrs, day 14 after castration
[21] = OVX + D2, estriol 1.0 μg/24 hrs, day 15 after castration
[22] = OVX + D3, estriol 10.0 μg/24 hrs, day 7 after castration
[23] = OVX + D3, estriol 10.0 μg/24 hrs, day 12 after castration
[24] = OVX + D3, estriol 10.0 μg/24 hrs, day 13 after castration
[25] = OVX + D3, estriol 10.0 μg/24 hrs, day 14 after castration
[26] = OVX + D3, estriol 10.0 μg/24 hrs, day 15 after castration
[27] = OVX + D4, estriol 50.0 μg/24 hrs, day 7 after castration
[28] = OVX + D4, estriol 50.0 μg/24 hrs, day 15 after castration

## C[C@]12CC[C@@H]3c4ccc(O)cc4CC[C@H]3[C@@H]1CC[C@@H]2O [estradiol]
[1]
  effect on arteriosclerotic vascular changes: can slow the advance of arteriosclerotic vascular changes
[2]
  suppression of ovulation in women: clearly possible
[3]
  prevention of osteoporosis in the climacteric: can prevent advancing osteoporosis in the climacteric

## C[C@]12CC[C@@H]3c4ccc(O)cc4CC[C@H]3[C@@H]1CCC2=O [estrone]
[1]
  effect on arteriosclerotic vascular changes: can slow the advance of arteriosclerotic vascular changes
[3]
  prevention of osteoporosis in the climacteric: can prevent advancing osteoporosis in the climacteric

## C[C@]12CC[C@@H]3c4ccc(O)cc4CC[C@H]3[C@@H]1C[C@@H](O)[C@@H]2O [estriol]
[4]
  anti-estrogen action: proved to have an anti-estrogen action
[5]; OVX + 0.1 microg E3/day
  % trabecular proportion of the bone volume: 16.89%
[5]; OVX + 1.0 microg E3/day
  % trabecular proportion of the bone volume: 17.46%
[5]; OVX + 10.0 microg E3/day
  % trabecular proportion of the bone volume: 24.79%
[5]; OVX + 50.0 microg E3/day
  % trabecular proportion of the bone volume: 26.64%
[5]; overall evaluation, uniform levels of active ingredient
  osteoprotective potential: has an osteoprotective potential
[5]; result in words, Table 4
  effect on decomposition of bone mass after castration: alleviated by estriol in a dose-dependent manner
[6]
  stimulation of uterine weights: does not significantly stimulate uterine weights
[3]; official statement / text book
  effectiveness for osteoporosis prophylaxis: ineffectiveness; also recorded: Not effective for osteoporosis prophylaxis
[7]; OVX + D1, estriol 0.1 μg/24 hrs, day 0 after castration (starting value)
  Hydroxyproline content in the urine: 1,46 μmol/1 d
[7]; [12]
  relative change of hydroxyproline content in the urine: 56,95%
  Hydroxyproline content in the urine: 2,15 μmol/1 d
[7]; [13]
  relative change of hydroxyproline content in the urine: 84,62%
  Hydroxyproline content in the urine: 2,41 μmol/1 d
[7]; [14]
  relative change of hydroxyproline content in the urine: 79,03%
  Hydroxyproline content in the urine: 2,51 μmol/1 d
[7]; [15]
  relative change of hydroxyproline content in the urine: 59,47%
  Hydroxyproline content in the urine: 2,11 μmol/1 d
[7]; [16]
  relative change of hydroxyproline content in the urine: 40,95%
  Hydroxyproline content in the urine: 2,00 μmol/1 d
[7]; OVX + D2, estriol 1.0 μg/24 hrs, day 0 after castration (starting value)
  Hydroxyproline content in the urine: 1,63 μmol/1 d
[7]; [17]
  relative change of hydroxyproline content in the urine: 15,48%
  Hydroxyproline content in the urine: 1,94 μmol/1 d
[7]; [18]
  relative change of hydroxyproline content in the urine: 74,86%
  Hydroxyproline content in the urine: 2,97 μmol/1 d
[7]; [19]
  relative change of hydroxyproline content in the urine: 42,71%
  Hydroxyproline content in the urine: 2,40 μmol/1 d
[7]; [20]
  relative change of hydroxyproline content in the urine: 37,83%
  Hydroxyproline content in the urine: 2,31 μmol/1 d
[7]; [21]
  relative change of hydroxyproline content in the urine: 10,69%
  Hydroxyproline content in the urine: 1,83 μmol/1 d
[7]; OVX + D3, estriol 10.0 μg/24 hrs, day 0 after castration (starting value)
  Hydroxyproline content in the urine: 1,67 μmol/1 d
[7]; [22]
  relative change of hydroxyproline content in the urine: 47,88%
  Hydroxyproline content in the urine: 0,88 μmol/1 d
[7]; [23]
  relative change of hydroxyproline content in the urine: -40,47%
  Hydroxyproline content in the urine: 0,98 μmol/1 d
[7]; [24]
  relative change of hydroxyproline content in the urine: -36,63%
  Hydroxyproline content in the urine: 1,04 μmol/1 d
[7]; [25]
  relative change of hydroxyproline content in the urine: -48,91%
  Hydroxyproline content in the urine: 0,94 μmol/1 d
[7]; [26]
  relative change of hydroxyproline content in the urine: -28,45%
  Hydroxyproline content in the urine: 1,16 μmol/1 d
[7]; [27]
  relative change of hydroxyproline content in the urine: -34,52%
[7]; OVX + D4, estriol 50.0 μg/24 hrs, day 12 after castration
  relative change of hydroxyproline content in the urine: -33,26%
[7]; OVX + D4, estriol 50.0 μg/24 hrs, day 13 after castration
  relative change of hydroxyproline content in the urine: -35,04%
[7]; OVX + D4, estriol 50.0 μg/24 hrs, day 14 after castration
  relative change of hydroxyproline content in the urine: -38,21%
[7]; [28]
  relative change of hydroxyproline content in the urine: -40,43%
[7]; result in words, Table 3
  effect on increase of hydroxyproline excretion in the urine after castration: can also be alleviated through treatment with estriol
[8]; OVX + D1, estriol 0.1 μg/24 hrs, day 0 after castration (starting value), n = 8
  Hydroxyproline content in the serum: 30,55 μmol/1 l
[8]; [12]
  relative change of hydroxyproline content in the serum: 18,44%
[8]; OVX + D1, estriol 0.1 μg/24 hrs, day 7 after castration, n = 8
  Hydroxyproline content in the serum: 35,31 μmol/1 l
[8]; [16]
  relative change of hydroxyproline content in the serum: 11,66%
[8]; OVX + D1, estriol 0.1 μg/24 hrs, day 15 after castration, n = 8
  Hydroxyproline content in the serum: 33,36 μmol/1 l
[8]; OVX + D2, estriol 1.0 μg/24 hrs, day 0 after castration (starting value), n = 8
  Hydroxyproline content in the serum: 30,74 μmol/1 l
[8]; [17]
  relative change of hydroxyproline content in the serum: 8,82%
[8]; OVX + D2, estriol 1.0 μg/24 hrs, day 7 after castration, n = 8
  Hydroxyproline content in the serum: 33,20 μmol/1 l
[8]; [21]
  relative change of hydroxyproline content in the serum: 0,39%
[8]; OVX + D2, estriol 1.0 μg/24 hrs, day 15 after castration, n = 8
  Hydroxyproline content in the serum: 30,51 μmol/1 l
[8]; OVX + D3, estriol 10.0 μg/24 hrs, day 0 after castration (starting value), n = 8
  Hydroxyproline content in the serum: 28,16 μmol/1 l
[8]; [22]
  relative change of hydroxyproline content in the serum: -3,56%
[8]; OVX + D3, estriol 10.0 μg/24 hrs, day 7 after castration, n = 8
  Hydroxyproline content in the serum: 26,25 μmol/1 l
[8]; [26]
  relative change of hydroxyproline content in the serum: -23,81%
[8]; OVX + D3, estriol 10.0 μg/24 hrs, day 15 after castration, n = 8
  Hydroxyproline content in the serum: 20,90 μmol/1 l
[8]; OVX + D4, estriol 50.0 μg/24 hrs, day 0 after castration (starting value), n = 9
  Hydroxyproline content in the serum: 28,26 μmol/1 l
[8]; [27]
  relative change of hydroxyproline content in the serum: -8,87%
[8]; OVX + D4, estriol 50.0 μg/24 hrs, day 7 after castration, n = 9
  Hydroxyproline content in the serum: 25,45 μmol/1 l
[8]; [28]
  relative change of hydroxyproline content in the serum: -38,62%
[8]; OVX + D4, estriol 50.0 μg/24 hrs, day 15 after castration, n = 9
  Hydroxyproline content in the serum: 17,33 μmol/1 l
[8]; result in words, Table 2
  effect on increase of hydroxyproline in the blood after ovariectomy: this increase was suppressed through treatment with estriol in dose-dependent manner
[9]
  osteoprotective effectiveness in the bones: developed no osteoprotective effectiveness in the bones
[10]
  anti-tumour effect: can prevent or suppress the development of mastocarcinomas; also recorded: proven anti-tumour effect
[11]
  inactivation of estriol: inactivated extremely quickly
